Laboratory results taken from patent publication US10045978B2 (AB SCIENCE, priority 2010, dated 2018).

System: patients with indolent mastocytosis with handicap bearing the D816V c-Kit mutation
Assay: Example 2 phase 2a study, efficacy
Type: in vivo, human
Set-up: mean reduction of FIS score / mean reduction of pruritus score / mean reduction in frequency of flushes / reduction of daily number of stools / reduction of daily number of micturition / AFIRMM score reduction: concentration or dose not given beside the values
Conditions: week 12
Text: Eligible patients were aged >18 years, had previously documented indolent systemic, smoldering systemic or cutaneous mastocytosis as per the WHO classification with associated disability as the result of mast cell released mediators. Patients had to have a positive D816V c-Kit mutation status, i.e. documented presence of D816V mutation in at least one infiltrated organ including bone marrow or skin. For patients with prior documented presence of D816V mutation in at least one infiltrated organ (bone marrow or skin), no test was performed at the screening visit; however, for those patients without such documentation it was necessary to perform c-Kit molecular analysis prior to randomization. Skin biopsy and optionally (unless patients had no cutaneous lesion) a bone marrow aspirate or biopsy, were performed at baseline to confirm the presence of D816V mutation and to count mast cells in the infiltrated organs. All skin biopsies, bone marrow aspirate or biopsies, performed for this study were sent to the AB Science central laboratory for sequencing and mast cell counting. Patients were classified as having a handicap if after appropriate symptomatic treatments they fulfilled at least one of the following a priori criteria: number of flushes/week ≥7; pruritus score ≥6; number of stools ≥4/day (i.e. diarrhea); micturition frequency ≥8/day (i.e. pollakiuria); Hamilton rating for depression ≥10; Fatigue Impact Scale (FIS) score ≥40; or EORTC quality-of-life questionnaire (QLQ-C30) score ≥60. Patients were excluded if they experienced inadequate organ function defined via blood test levels, or an Eastern Cooperative Oncology Group performance status >2. Other exclusion criteria included: life expectancy <6 months, severe or uncontrolled medical disease, and patients who were pregnant or nursing.
In accordance to the AFIRMM study (Hermine O, et al., 2008, PLoS ONE. 3:e2266), evaluation of treatment response was based upon the change of clinical symptoms associated with a patient's handicaps at week 12 relative to baseline. Efficacy was assessed on the symptoms of mastocytosis. Primary efficacy endpoints were treatment effect on the pruritus score, the number of flushes per week, the Hamilton score, and the Fatigue Impact scale.

[1] = patients with this handicap at baseline

Cc1ccc(NC(=O)c2ccc(CN3CCN(C)CC3)cc2)cc1Nc1nc(-c2cccnc2)cs1 [masitinib, 4-(4-methylpiperazin-1-ylmethyl)-N-[4-methyl-3-(4-pyridin-3ylthiazol-2-ylamino)phenyl]benzamide]
AFIRMM score reduction: 32.0%
Hamilton score improvement (PP population): 27.0%
mean reduction in frequency of flushes (PP population): 45.5%
mean reduction of FIS score (PP population): 51.8%
mean reduction of pruritus score (PP population): 46.0%
overall response rate (improvement ≥50%) (PP population (14 of 20 patients)): 70%
patients remaining stable (PP population (four patients)): 20%
reduction of daily number of stools (patients with diarrhea at baseline): 41.3%
reduction of daily number of micturition (patients with pollakiuria at baseline): 30.3%
Hamilton score improvement [1]: 44.3%
mean reduction in frequency of flushes [1]: 55.3%
mean reduction of FIS score [1]: 45.6%
